The values below come from publication PMC6706398 (Scientific Reports, 2019).

The structures appear in SMILES notation. Values joined by “and” are separate entries in the source; they are usually repeats but may differ in a detail not shown here. Equal values may be shown once. Read-outs that look alike come from different tables or passages of the source.

For assay [1], the system named is CT. The conditions noted are these: cited from earlier work.
Assay [2] addresses wild-type CT holotoxin (cCT) (Vibrio cholerae, UniProt Q57193). As to the kind of experiment: biochemical. In kind it is binding.
Assay [3] has as its target CT. The settings on record: cited from earlier work. The source holds these as a separate data set.
Assay [4] has as its system CTB binding in cell culture (intestinal epithelial cells). The conditions noted are these: cited from earlier work.
For assay [5], the system named is CTB binding to jejunal epithelial cells. The settings on record: cited from earlier work.

The Kd is the constant that tells how readily two partners part at equilibrium.

With `CC(=O)N[C@H]1[C@H](O[C@@H]2[C@H](O[C@]3(C(=O)O)C[C@H](O)[C@@H](NC(C)=O)[C@H]([C@H](O)[C@H](O)CO)O3)[C@@H](O)[C@H](O[C@H]3[C@H](O)[C@@H](O)[C@H](O)O[C@@H]3CO)O[C@@H]2CO)O[C@H](CO)[C@H](O)[C@@H]1O[C@@H]1O[C@H](CO)[C@H](O)[C@H](O)[C@H]1O[C@@H]1O[C@@H](C)[C@@H](O)[C@@H](O)[C@@H]1O` [Fucosyl-GM1], in assay [1], the “binding to CT relative to GM1” value is recorded as “almost as strongly as GM1”.

Regarding `CC(=O)N[C@H]1[C@H](O[C@@H]2[C@H](O[C@]3(C(=O)O)C[C@H](O)[C@@H](NC(C)=O)[C@H]([C@H](O)[C@H](O)CO)O3)[C@@H](O)[C@H](O[C@H]3[C@H](O)[C@@H](O)[C@H](O)O[C@@H]3CO)O[C@@H]2CO)O[C@H](CO)[C@H](O)[C@@H]1O[C@@H]1O[C@H](CO)[C@H](O)[C@H](O)[C@H]1O[C@@H]1O[C@@H](C)[C@@H](O)[C@@H](O)[C@@H]1O` [GM1os], the results for the Kd in assay [2] and in assay [3] were 5.77e-05 ± 3e-07 mM and 43 nM, respectively.

Consider `C[C@H](O)[C@@H](O)[C@@H](O)[C@H](O)C=O` [L-fucose], for which, in assay [4], the “blocking of CTB binding in cell culture” value is on record as “block CTB binding”.

Take `CC(=O)N[C@H]1[C@H](O[C@@H]2[C@@H](O)[C@H](O)O[C@H](CO)[C@@H]2O)O[C@H](CO)[C@@H](O[C@@H]2O[C@H](CO)[C@H](O)[C@H](O)[C@H]2O)[C@@H]1O[C@@H]1O[C@@H](C)[C@@H](O)[C@@H](O)[C@@H]1O` [Le^x tetraose]: the Kd in assay [2] (Kd) was 7.7 ± 0.5 mM.

Turning to `CC(=O)N[C@@H]1[C@@H](O[C@@H]2O[C@@H](C)[C@@H](O)[C@@H](O)[C@@H]2O)[C@H](O[C@@H]2O[C@H](CO)[C@H](O)[C@H](O)[C@H]2O)[C@@H](CO)O[C@H]1O` [Le^x triaose], the Kd in assay [2] (Kd) was 8.1 mM and 8 mM. Besides, the “blocking of CTB binding to jejunal epithelial cells” value in assay [5] was “can be blocked”.
